# Assay results as given in article PMC7226075, “A Novel Serine Protease Inhibitor PE-BBI Ameliorates Cockroach Extract-Mediated Airway Epithelial Barrier Dysfunction” (Biomolecules, 2020).
# “Also recorded” adds a separate entry of the source.
# Columns and labels:
# BEAS-2B cells = settings: ref [13], cited from earlier work
# [1] = system: cockroach extract (CRE) trypsin-like protease (TLP) activity; assay: Inhibition of CRE trypsin-like protease (TLP) activity, fluorogenic peptide substrate-based assay; assay type: biochemical, German cockroach; settings: Boc-QAR-NH2Mec 50 µM, λex 380/λem 460 nm, 37 °C, 100 μL, inhibitors 0.01–10 μM, four-parameter logistic fit; mean (95% CI) in Figure 1B, n ≥ 4
# Protocol: Whole-body German cockroach extract was sourced from Greer Laboratories (USA). All other reagents were obtained from Sigma-Aldrich unless otherwise indicated.
# (§1) Cleavage of the fluorogenic peptide substrate Boc-QAR-NH2Mec (50 µM final concentration) (R&D Systems) was used to assay TLP activity with the rate of substrate hydrolysis continuously recorded at λex 380 nm and λem 460 nm using a FLUOstar Optima microplate reader (BMG Labtech). All inhibition assays were performed in microtitre plates maintained at 37 °C in a final volume of 100 μL. Curve fitting and pIC50 (-logIC50) determinations were carried out by fitting to a four-parameter logistic equation (GraphPad Prism).
# recombinant trypsin = assay: Inhibition of recombinant trypsin, fluorogenic peptide substrate-based activity assay; assay type: biochemical; settings: Boc-QAR-NH2Mec 50 µM, λex 380/λem 460 nm, 37 °C, 100 μL, inhibitors 0.01–10 μM, four-parameter logistic fit; mean (95% CI) in Figure 1B, n ≥ 4
# Protocol: as §1
# 16HBE cells = assay: Cell viability assay (RealTime-Glo MT), submerged 16HBE cells; assay type: cell-based, human; settings: CRE 16.5 µg protein/well, 24 h, inhibitor 50 µM, n = 6
# Protocol: Cell viability was measured in submerged 16HBE cells using the non-lytic and homogeneous RealTime-Glo MT Cell Viability Assay (Promega) as per the manufacturer’s instructions.
# [2] = system: 16HBE cell surface TLP activity; assay: 16HBE cell surface TLP activity assay; assay type: cell-based, human; settings: polarised 16HBE, inhibitor 50 µM, Boc-QAR-NH2Mec 50 µM apical, 1 h continuous, λex 380/λem 460 nm; n = 7, mean ± SEM
# Protocol: Studies were performed using a SV-40-transformed human bronchial epithelial cell line (16HBE14o^-). The 16HBE cells were grown on collagen-coated T75 flasks (Corning) using bronchial epithelial growth medium (BEGM) (Lonza), in a humidified cell culture incubator supplemented with 5% CO2. After trypsinization, cells (5 × 10^5 cells/cm^2) were seeded onto semipermeable transwell filters (Corning) in BEGM and allowed to grow at liquid–liquid interface for 2 days then switched to DMEM/F-12 medium supplemented with 2% (v/v) Ultroser G (Pall-BioSpera) for a further 2 days (liquid–liquid interface), at which point cultures were exposed to air–liquid interface conditions for a further 5–7 day period, whereupon experiments were conducted.
# Polarised 16HBE cells grown on transwell semi-permeable filters were used to assess cell surface TLP activity. Apical cell-surface (membrane-attached) proteolytic activity was measured in stringently washed (using PBS) cells via direct addition of a fluorogenic peptide substrate (50 µM Boc-QAR-–NH2Mec) to the apical compartment with continuous measurement of the formation of –NH2Mec (at λex 380 nm and λem 460 nm) over a 1 h period. Surface activity was determined in the presence and absence of protease inhibitors (GM, pLR-HL or PE-BBI) which were added at a final concentration of 50 µM.
smiles,measurement,setting,value
"CCOC(=O)c1ccc(OC(=O)CCCCCN=C(N)N)cc1.CS(=O)(=O)O [GM, gabexate mesylate]",CRE-induced airway epithelial cell damage in presence of GM,BEAS-2B cells; previous study,ameliorates CRE-induced airway epithelial cell damage
same,CRE-mediated cell damage and inflammation in presence of GM,BEAS-2B cells,reduced CRE-mediated cell damage and inflammation
same,pIC50 (-logIC50) vs CRE TLP activity,[1],~ 6.7
same,pIC50 (-logIC50) vs recombinant trypsin,recombinant trypsin,6.76
same,Rescue of CRE-induced cell damage (viability),16HBE cells,"failed to do so; also recorded: trend towards modest protection of cells by GM, and pLR-HL, but this was not statistically significant"
same,Effect on 16HBE cell surface TLP activity,[2],significantly reduced
